Experiments:
[1] = test system: E-cadherin expression; conditions: SAEMyoF
Excerpt: The effect of C21 on E-cadherin expression was studied using the human disease model BioMAP® platform (fibrosis panel) with ELISA-based protein biomarker detection in a human small airway epithelial cell plus lung fibroblast (SAEMyoF) assay (a service provided by Eurofins DiscoverX Corporation, Fremont, Calif., USA).

[2] = test system: SARS-CoV-2 infection
[3] = test system: ACE2; conditions: in particular in inflamed lung tissue; cited from earlier work
[4] = test system: AT2R; conditions: in particular in inflamed lung tissue; cited from earlier work
[5] = test system: acute lung injury; conditions: model of acute lung injury; cited from earlier work
[6] = end of treatment, 100 mg b.i.d. oral, 7 days on top of standard of care, n=51

Q: Which “reduction of E-cadherin at lower concentrations” value ([1]; 0.37, 1.1 and 3.3 μM of C21) does the source give for CCCCOC(=O)NS(=O)(=O)c1sc(CC(C)C)cc1-c1ccc(Cn2ccnc2)cc1 [Compound C21, N-butyloxycarbonyl-3-(4-imidazol-1-ylmethylphenyl)-5-isobutylthiophene-2-sulfonamide] here?
A: did not reduce E-cadherin

Q: And the “effect on E-cadherin levels” value ([1]; 0.37-10 μM)?
A: dose-dependently reduced

Q: And the “level of circulating biomarker of inflammation CRP, versus placebo” value ([2]; 100 mg b.i.d., 7 days)?
A: no significant differences

Q: What about the “level of circulating biomarker of inflammation IL-6, versus placebo” value ([2]; 100 mg b.i.d., 7 days) of the same compound?
A: no significant differences

Q: And the “level of circulating biomarker of inflammation TNF, versus placebo” value ([2]; 100 mg b.i.d., 7 days)?
A: no significant differences

Q: And the tolerability ([2]; 100 mg b.i.d., 7 days, COVID-19 patients)?
A: well tolerated

Q: What about the deaths ([2]; 100 mg b.i.d., 7 days, n=51) of the same compound?
A: 1

Q: What about the “number of patients needing mechanical ventilation” value ([2]; 100 mg b.i.d., 7 days, n=51) of the same compound?
A: 1

Q: And the “total number of reported adverse events” value ([2]; 100 mg b.i.d., 7 days, n=51)?
A: 64

Q: And the “beneficial effect on need of oxygen supply versus placebo” value ([2]; 100 mg b.i.d., 7 days, C21 n=51 vs placebo n=56)?
A: statistically significant at the predefined 10% level

Q: And the “number of patients that needed oxygen supply” value [2, 6]?
A: 14

Q: What about the “patients that needed oxygen supply, share of group” value [2, 6] of the same compound?
A: 27%

Q: What about the “expression of ACE2” value [3] of the same compound?
A: increase the expression

Q: And the “expression of AT2R” value [4]?
A: increase the expression

Q: And the “pulmonary gas exchange or other relevant beneficial clinical effects” value [5]?
A: not to improve

— patent publication US11123329B1, “Use of angiotensin II type 2 receptor agonist” (Vicore Pharma AB, priority 2020, dated 2021)
